Experimental data: article PMC6028563, “Probing Substituents in the 1- and 3-Position: Tetrahydropyrazino-Annelated Water-Soluble Xanthine Derivatives as Multi-Target Drugs With Potent Adenosine Receptor Antagonistic Activity” (Frontiers in Chemistry, 2018)

Columns and labels:
recombinant human MAO-B = target: T1, recombinant human MAO-B (Homo sapiens, UniProt P27338); assay: Monoamine oxidase assay (Amplex Red), MAO-B; type: biochemical; conditions: for inhibition at 10 µM: at 10,000 nM (10 μM), read-out: % inhibition at indicated concentration, Human MAO-B; for IC50: n = 3, read-out: IC50 ± SEM, Human MAO-B
T1 construct: purchased Sigma-Aldrich M7441; host or cells: baculovirus-infected insect cells
T1 sequence (P27338 1-520): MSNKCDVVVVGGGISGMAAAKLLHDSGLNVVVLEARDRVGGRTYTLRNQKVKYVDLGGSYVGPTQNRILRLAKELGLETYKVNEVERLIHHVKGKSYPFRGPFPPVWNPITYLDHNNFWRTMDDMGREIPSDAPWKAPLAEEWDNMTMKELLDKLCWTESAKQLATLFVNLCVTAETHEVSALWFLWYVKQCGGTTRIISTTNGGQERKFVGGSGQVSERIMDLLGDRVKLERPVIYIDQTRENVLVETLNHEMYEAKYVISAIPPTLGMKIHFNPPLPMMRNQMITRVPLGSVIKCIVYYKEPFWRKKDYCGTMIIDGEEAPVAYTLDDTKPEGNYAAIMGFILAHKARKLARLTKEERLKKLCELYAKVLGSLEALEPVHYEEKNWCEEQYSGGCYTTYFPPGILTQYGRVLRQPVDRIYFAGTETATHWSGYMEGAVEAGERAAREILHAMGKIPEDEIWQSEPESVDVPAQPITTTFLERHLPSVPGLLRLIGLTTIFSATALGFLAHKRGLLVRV
Procedure, shortened: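 Recombinant human MAO-A and MAO-B, expressed in baculovirus-infected insect cells, were assayed by Amplex Red fluorometric detection. Rat MAO-B inhibition used mitochondria-enriched fractions from male Sprague Dawley rat liver.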

human A1 AR = target: T2, human A1 AR (Homo sapiens, UniProt P30542); assay: Radioligand binding assay at human A1 AR vs. [^3H]CCPA; conditions: human (h); CHO cell membranes; n = 3
T2 construct: expressed in transfected cells; host or cells: CHO cells
T2 sequence (P30542 1-326): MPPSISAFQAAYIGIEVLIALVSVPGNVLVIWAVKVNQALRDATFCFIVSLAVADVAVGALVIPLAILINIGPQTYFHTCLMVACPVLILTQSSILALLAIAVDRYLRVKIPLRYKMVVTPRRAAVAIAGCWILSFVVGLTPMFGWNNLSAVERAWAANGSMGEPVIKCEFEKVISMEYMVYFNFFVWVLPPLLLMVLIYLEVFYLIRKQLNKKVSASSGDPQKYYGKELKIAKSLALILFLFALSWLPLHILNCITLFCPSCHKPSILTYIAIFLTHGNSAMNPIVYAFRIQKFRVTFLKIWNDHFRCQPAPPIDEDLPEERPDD
Method: (§1) Membrane preparations and radioligand binding assays at rat A1 (rat brain cortex) and rat A2A ARs (rat brain striatum) were performed as previously described (Ozola et al., [2003]; Alnouri et al., [2015]). For assays at human A1, A2A, A2B, and A3 ARs, CHO cell membranes expressing one of the human AR subtypes were used as previously reported (Klotz et al., [1998]; Alnouri et al., [2015]; De Filippo et al., [2016]).
(§2) The synthesized tetrahydropyrazino[2,1-f ]purinediones 13–20 were evaluated in radioligand binding assays for their affinity to A1 ARs of rat brain cortical membrane and to A2A ARs of rat brain striatal membrane preparations. Selected compounds were further investigated for their affinity to human A1 and A2A ARs recombinantly expressed in Chinese hamster ovary (CHO) cells. All compounds were additionally investigated for their affinity to human A2B and A3 ARs recombinantly expressed in CHO cells to determine their AR subtype selectivity. […] It is well known that all xanthine derivatives lacking a ribose moiety, including tricyclic compounds, can only block ARs, but never act as AR agonists; therefore, additional functional studies were not required. […] Potent MAO-B inhibitors were additionally investigated for inhibition of human MAO-A to assess their selectivity. Results are presented in Tables 1–6, and data of standard ligands are included for comparison.

human A2B AR = target: T3, human A2B AR (Homo sapiens, UniProt P29275); assay: Radioligand binding assay at human A2B AR vs. [^3H]PSB-603; conditions: for Ki: CHO cell membranes, n = 2 (n = 3 where marked a), read-out: Ki ± SEM, A2B vs. [^3H]PSB-603; for inhibition at 1 µM: at 1,000 nM, read-out: % inhibition of radioligand binding at indicated concentration, A2B vs. [^3H]PSB-603
T3 construct: expressed in transfected cells; host or cells: CHO cells
T3 sequence (P29275 1-332): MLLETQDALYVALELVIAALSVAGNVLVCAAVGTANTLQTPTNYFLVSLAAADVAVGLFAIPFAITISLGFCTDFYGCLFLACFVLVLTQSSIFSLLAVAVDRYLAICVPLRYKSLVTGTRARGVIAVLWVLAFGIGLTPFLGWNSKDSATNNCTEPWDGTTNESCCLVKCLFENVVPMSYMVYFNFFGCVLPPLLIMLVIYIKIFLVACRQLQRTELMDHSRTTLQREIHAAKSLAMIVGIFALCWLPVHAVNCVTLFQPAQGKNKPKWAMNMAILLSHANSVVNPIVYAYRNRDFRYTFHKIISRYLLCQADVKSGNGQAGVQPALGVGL
Procedure, shortened: (§3)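 Using CHO membranes with one recombinant human AR subtype each (A1, A2A, A2B, A3), plus rat cortical (A1) and striatal (A2A) membranes, compounds are tested in radioligand binding to give receptor affinity and subtype selectivity.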

rat A2A AR = target: T4, rat A2A AR (Rattus norvegicus, UniProt P30543); assay: Radioligand binding assay at rat A2A AR (rat brain striatum) vs. [^3H]MSX-2; conditions: rat (r); for Ki: rat brain striatum, n = 3, read-out: Ki ± SEM, A2A vs. [^3H]MSX-2
T4 construct: A2A ARs of rat brain striatal membrane preparations; from tissue; host or cells: rat brain striatum membranes
Procedure, shortened: as §3

human A3 AR = target: T5, human A3 AR (Homo sapiens, UniProt P0DMS8); assay: Radioligand binding assay at human A3 AR vs. [^3H]PSB-11; conditions: for Ki: CHO cell membranes, n = 2 (n = 3 where marked a), read-out: Ki ± SEM, A3 vs. [^3H]PSB-11; for inhibition at 10 µM: at 10,000 nM, read-out: % inhibition of radioligand binding at indicated concentration, A3 vs. [^3H]PSB-11
T5 construct: expressed in transfected cells; host or cells: CHO cells
T5 sequence (P0DMS8 1-318): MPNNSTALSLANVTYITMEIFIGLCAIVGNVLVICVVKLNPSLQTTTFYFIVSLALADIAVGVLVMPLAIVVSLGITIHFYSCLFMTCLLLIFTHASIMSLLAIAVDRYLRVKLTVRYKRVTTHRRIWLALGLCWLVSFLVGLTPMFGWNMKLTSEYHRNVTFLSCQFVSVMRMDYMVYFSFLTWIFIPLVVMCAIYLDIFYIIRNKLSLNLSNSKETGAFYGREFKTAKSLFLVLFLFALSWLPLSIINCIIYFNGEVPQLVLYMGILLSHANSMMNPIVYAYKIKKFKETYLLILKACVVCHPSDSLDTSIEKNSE
Procedure, shortened: as §3

rat A1 AR = target: T6, rat A1 AR (Rattus norvegicus, UniProt P25099); assay: Radioligand binding assay at rat A1 AR (rat brain cortex) vs. [^3H]CCPA; conditions: rat (r); rat brain cortex; n = 3
T6 construct: A1 ARs of rat brain cortical membrane; from tissue; host or cells: rat brain cortex membranes
T6 sequence (P25099 1-326): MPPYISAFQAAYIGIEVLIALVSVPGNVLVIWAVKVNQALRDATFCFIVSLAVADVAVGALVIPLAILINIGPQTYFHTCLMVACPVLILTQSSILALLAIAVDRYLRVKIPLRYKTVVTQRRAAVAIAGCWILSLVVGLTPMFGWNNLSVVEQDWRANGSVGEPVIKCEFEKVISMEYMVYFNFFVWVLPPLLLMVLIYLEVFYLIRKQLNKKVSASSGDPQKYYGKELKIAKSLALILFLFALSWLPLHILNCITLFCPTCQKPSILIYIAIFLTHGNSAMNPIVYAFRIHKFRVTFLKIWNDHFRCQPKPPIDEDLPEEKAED
Procedure, shortened: as §3

human A2A AR = target: T7, human A2A AR (Homo sapiens, UniProt P29274); assay: Radioligand binding assay at human A2A AR vs. [^3H]MSX-2; conditions: CHO cell membranes, n = 3, read-out: Ki ± SEM, A2A vs. [^3H]MSX-2
T7 construct: expressed in transfected cells; host or cells: CHO cells
Method: as §1, §2

T4 sequence (P30543 whole entry): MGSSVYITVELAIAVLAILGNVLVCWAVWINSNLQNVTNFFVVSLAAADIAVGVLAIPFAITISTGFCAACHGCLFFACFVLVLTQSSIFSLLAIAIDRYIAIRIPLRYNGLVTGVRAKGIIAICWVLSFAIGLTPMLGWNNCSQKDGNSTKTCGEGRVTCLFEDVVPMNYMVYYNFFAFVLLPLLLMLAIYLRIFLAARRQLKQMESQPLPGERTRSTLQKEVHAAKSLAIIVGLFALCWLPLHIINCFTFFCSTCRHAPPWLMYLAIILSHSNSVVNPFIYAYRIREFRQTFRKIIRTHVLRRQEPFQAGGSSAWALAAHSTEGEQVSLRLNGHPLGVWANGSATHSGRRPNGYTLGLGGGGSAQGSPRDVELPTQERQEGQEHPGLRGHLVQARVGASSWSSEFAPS
T7 sequence (P29274 whole entry): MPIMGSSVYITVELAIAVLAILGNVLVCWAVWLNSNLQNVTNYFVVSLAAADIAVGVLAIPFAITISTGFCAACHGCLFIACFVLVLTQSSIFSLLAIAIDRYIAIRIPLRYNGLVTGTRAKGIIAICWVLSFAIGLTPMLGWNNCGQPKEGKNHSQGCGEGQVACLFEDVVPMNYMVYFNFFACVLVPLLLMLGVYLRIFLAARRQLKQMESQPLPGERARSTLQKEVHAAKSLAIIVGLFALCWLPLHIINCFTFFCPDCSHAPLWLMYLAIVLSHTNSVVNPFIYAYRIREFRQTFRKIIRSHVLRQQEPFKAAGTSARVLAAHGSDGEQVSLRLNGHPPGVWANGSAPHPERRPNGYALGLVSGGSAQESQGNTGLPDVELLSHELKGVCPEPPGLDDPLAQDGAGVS

| Structure (SMILES) | inhibition at 10 µM (recombinant human MAO-B) [%] | IC50 (recombinant human MAO-B) [nM] | Ki (human A1 AR) [nM] | Ki (human A2B AR) [nM] | inhibition at 1 µM (human A2B AR) [%] | Ki (rat A2A AR) [nM] | Ki (human A3 AR) [nM] | inhibition at 10 µM (human A3 AR) [%] | Ki (rat A1 AR) [nM] | Ki (human A2A AR) [nM] | % inhibition of radioligand binding at indicated concentration, A2A vs. [^3H]MSX-2 (rat A2A AR; at 1,000 nM) [%] |
| --- | --- | --- | --- | --- | --- | --- | --- | --- | --- | --- | --- |
| C#CCn1c(=O)c2c(nc3n2CCN(Cc2ccccc2)C3)n(CC)c1=O [Compound 20e, 8-benzyl-1-ethyl-3-propargyl-6,7,8,9-tetrahydropyrazino[2,1-f]purine-2,4(1H,3H)-dione] | 20 | > 10000 | 180 ± 28 | > 1000 | 2 | 245 ± 39 | > 10000 | 35 | 118 ± 28 | 282 ± 38 |  |
| CCn1c(=O)c2c(nc3n2CCN(Cc2cccc(C(F)(F)F)c2F)C3)n(CC)c1=O [Compound 15h, 1,3-diethyl-8-(2-fluoro-3-(trifluoromethyl)benzyl)-6,7,8,9-tetrahydropyrazino[2,1-f]purine-2,4(1H,3H)-dione] | 32 | > 10000 | 189 ± 29 | > 1000 | 30 | 895 ± 210 | > 10000 | 29 | 172 ± 28 | 663 ± 54 |  |
| CCn1c(=O)c2c(nc3n2CCN(Cc2cccc(Cl)c2)C3)n(CC)c1=O [Compound 15c, 8-(3-chlorobenzyl)-1,3-diethyl-6,7,8,9-tetrahydropyrazino[2,1-f]purine-2,4(1H,3H)-dione] | 47 | ≥ 10000 | 128 ± 17 | > 1000 | 12 | > 1000 | 5410 |  | 85.9 ± 28.6 | 2380 | 22 |
| C#CCn1c(=O)c2c(nc3n2CCN(c2ccc(F)cc2)C3)n(CC)c1=O [Compound 20b, 1-ethyl-8-(4-fluorophenyl)-3-propargyl-6,7,8,9-tetrahydropyrazino[2,1-f]purine-2,4(1H,3H)-dione] | 35 | > 10000 | 1530 | > 1000 | 15 | 128 ± 20 | 2390 |  | 410 ± 60 | 378 ± 49 |  |
| C#CCn1c(=O)c2c(nc3n2CCN(CCc2ccccc2OC)C3)n(CC)c1=O [Compound 20i, 1-ethyl-8-(2-methoxyphenethyl)-3-propargyl-6,7,8,9-tetrahydropyrazino[2,1-f]purine-2,4(1H,3H)-dione] | 26 | > 10000 | 1260 | > 1000 | 24 | 883 ± 265 | 5830 |  | 701 ± 204 | 3230 |  |
| C#CCn1c(=O)c2c(nc3n2CCN(CCc2ccccc2)C3)n(CC)c1=O [Compound 20h, 1-ethyl-8-phenethyl-3-propargyl-6,7,8,9-tetrahydropyrazino[2,1-f]purine-2,4(1h,3h)-dione] | 27 | > 10000 | 2440 | > 1000 | 16 | 1700 | > 10000 | 36 | 117 ± 2 | 149 ± 28 |  |
| C#CCn1c(=O)c2c(nc3n2CCN(Cc2ccccc2OC)C3)n(CC)c1=O [Compound 20f, 1-ethyl-8-(2-methoxybenzyl)-3-propargyl-6,7,8,9-tetrahydropyrazino[2,1-f]purine-2,4(1H,3H)-dione] | 27 | > 10000 | 210 ± 90 | > 1000 | 18 | 1200 | 7640 |  | 32.7 ± 5.8 | 311 ± 106 |  |
| C#CCn1c(=O)c2c(nc3n2CCN(Cc2cccc(OC)c2)C3)n(CC)c1=O [Compound 20g, 1-ethyl-8-(3-methoxybenzyl)-3-propargyl-6,7,8,9-tetrahydropyrazino[2,1-f]purine-2,4(1H,3H)-dione] | 41 | > 10000 | 124 ± 90 | > 1000 | 22 | 769 ± 77 | > 10000 | 40 | 118 ± 22 | 542 ± 169 |  |
